Measured values: the supplement of paper PMC10307832

What was measured:
Experiment in all cases: relative viability (nuclei count vs DMSO), 5 days (fraction); higher = more cells survive
201T = system: 201T
Outline: (§1)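 Each reported value is a median over duplicate plates. It expresses relative viability: treated-well nuclei count divided by vehicle-well nuclei count. Lung cancer cell lines in 1536-well plates were dosed by pin tool a day after seeding, alone with one drug or with a fixed anchor-drug dose plus five library-drug doses (not always all listed) in √10 steps, and nuclei were counted after 5 days.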

BEN = system: BEN
Outline: as §1

EMC-BAC-2 = system: EMC-BAC-2
Outline: as §1

HARA = system: HARA
Outline: as §1

LCLC-103H = system: LCLC-103H
Outline: as §1

LOU-NH91 = system: LOU-NH91
Outline: as §1

NCI-H1395 = system: NCI-H1395
Outline: as §1

NCI-H1993 = system: NCI-H1993
Outline: as §1

NCI-H2023 = system: NCI-H2023
Outline: as §1

NCI-H2087 = system: NCI-H2087
Outline: as §1

NCI-H2126 = system: NCI-H2126
Outline: as §1

NCI-H2347 = system: NCI-H2347
Outline: as §1

NCI-H23 = system: NCI-H23
Outline: as §1

NCI-H3122 = system: NCI-H3122
Outline: as §1

NCI-H441 = system: NCI-H441
Outline: as §1

NCI-H522 = system: NCI-H522
Outline: as §1

NCI-H596 = system: NCI-H596
Outline: as §1

NCI-H647 = system: NCI-H647
Outline: as §1

NCI-H650 = system: NCI-H650
Outline: as §1

NCI-H727 = system: NCI-H727
Outline: as §1

NCI-H838 = system: NCI-H838
Outline: as §1

Nc1ccn([C@@H]2O[C@H](CO)[C@@H](O)[C@@H]2O)c(=O)n1 [Cytarabine] + Cc1nc(Nc2ncc(C(=O)Nc3c(C)cccc3Cl)s2)cc(N2CCN(CCO)CC2)n1 [Dasatinib] (partner 0.075 µM)
relative viability (201T; first compound 0.005 µM): 0.659
relative viability (201T; first compound 0.01581 µM): 0.642
relative viability (201T; first compound 0.05 µM): 0.709
relative viability (201T; first compound 0.1581 µM): 0.444
relative viability (201T; first compound 0.5 µM): 0.501
relative viability (BEN; first compound 0.005 µM): 0.332
relative viability (BEN; first compound 0.01581 µM): 0.312
relative viability (BEN; first compound 0.05 µM): 0.204
relative viability (BEN; first compound 0.1581 µM): 0.175
relative viability (BEN; first compound 0.5 µM): 0.213
relative viability (EMC-BAC-2; first compound 0.005 µM): 0.344
relative viability (EMC-BAC-2; first compound 0.01581 µM): 0.278
relative viability (EMC-BAC-2; first compound 0.05 µM): 0.203
relative viability (EMC-BAC-2; first compound 0.1581 µM): 0.154
relative viability (EMC-BAC-2; first compound 0.5 µM): 0.113
relative viability (HARA; first compound 0.005 µM): 0.309
relative viability (HARA; first compound 0.01581 µM): 0.222
relative viability (HARA; first compound 0.05 µM): 0.227
relative viability (HARA; first compound 0.1581 µM): 0.0854
relative viability (HARA; first compound 0.5 µM): 0.0721
relative viability (LCLC-103H; first compound 0.005 µM): 0.449
relative viability (LCLC-103H; first compound 0.01581 µM): 0.507
relative viability (LCLC-103H; first compound 0.05 µM): 0.486
relative viability (LCLC-103H; first compound 0.1581 µM): 0.353
relative viability (LCLC-103H; first compound 0.5 µM): 0.445
relative viability (LOU-NH91; first compound 0.005 µM): 0.542
relative viability (LOU-NH91; first compound 0.01581 µM): 0.555
relative viability (LOU-NH91; first compound 0.05 µM): 0.422
relative viability (LOU-NH91; first compound 0.1581 µM): 0.416
relative viability (LOU-NH91; first compound 0.5 µM): 0.398
relative viability (NCI-H1395; first compound 0.005 µM): 0.385
relative viability (NCI-H1395; first compound 0.01581 µM): 0.34
relative viability (NCI-H1395; first compound 0.05 µM): 0.374
relative viability (NCI-H1395; first compound 0.1581 µM): 0.319
relative viability (NCI-H1395; first compound 0.5 µM): 0.282
relative viability (NCI-H1993; first compound 0.005 µM): 0.74
relative viability (NCI-H1993; first compound 0.01581 µM): 0.58
relative viability (NCI-H1993; first compound 0.05 µM): 0.523
relative viability (NCI-H1993; first compound 0.1581 µM): 0.49
relative viability (NCI-H1993; first compound 0.5 µM): 0.425
relative viability (NCI-H2023; first compound 0.005 µM): 0.315
relative viability (NCI-H2023; first compound 0.01581 µM): 0.219
relative viability (NCI-H2023; first compound 0.05 µM): 0.145
relative viability (NCI-H2023; first compound 0.1581 µM): 0.107
relative viability (NCI-H2023; first compound 0.5 µM): 0.0893
relative viability (NCI-H2087; first compound 0.005 µM): 0.747
relative viability (NCI-H2087; first compound 0.01581 µM): 0.712
relative viability (NCI-H2087; first compound 0.05 µM): 0.82
relative viability (NCI-H2087; first compound 0.1581 µM): 0.265
relative viability (NCI-H2087; first compound 0.5 µM): 0.233
relative viability (NCI-H2126; first compound 0.005 µM): 0.516
relative viability (NCI-H2126; first compound 0.01581 µM): 0.55
relative viability (NCI-H2126; first compound 0.05 µM): 0.429
relative viability (NCI-H2126; first compound 0.1581 µM): 0.378
relative viability (NCI-H2126; first compound 0.5 µM): 0.32
relative viability (NCI-H2347; first compound 0.005 µM): 0.321
relative viability (NCI-H2347; first compound 0.01581 µM): 0.307
relative viability (NCI-H2347; first compound 0.05 µM): 0.241
relative viability (NCI-H2347; first compound 0.1581 µM): 0.274
relative viability (NCI-H2347; first compound 0.5 µM): 0.201
relative viability (NCI-H23; first compound 0.005 µM): 0.864
relative viability (NCI-H23; first compound 0.01581 µM): 0.541
relative viability (NCI-H23; first compound 0.05 µM): 0.655
relative viability (NCI-H23; first compound 0.1581 µM): 0.236
relative viability (NCI-H23; first compound 0.5 µM): 0.187
relative viability (NCI-H3122; first compound 0.005 µM): 0.807
relative viability (NCI-H3122; first compound 0.01581 µM): 0.76
relative viability (NCI-H3122; first compound 0.05 µM): 0.789
relative viability (NCI-H3122; first compound 0.1581 µM): 0.349
relative viability (NCI-H3122; first compound 0.5 µM): 0.17
relative viability (NCI-H441; first compound 0.005 µM): 0.545
relative viability (NCI-H441; first compound 0.01581 µM): 0.533
relative viability (NCI-H441; first compound 0.05 µM): 0.485
relative viability (NCI-H441; first compound 0.1581 µM): 0.324
relative viability (NCI-H441; first compound 0.5 µM): 0.293
relative viability (NCI-H522; first compound 0.005 µM): 0.935
relative viability (NCI-H522; first compound 0.01581 µM): 0.802
relative viability (NCI-H522; first compound 0.05 µM): 0.769
relative viability (NCI-H522; first compound 0.1581 µM): 0.562
relative viability (NCI-H522; first compound 0.5 µM): 0.55
relative viability (NCI-H596; first compound 0.005 µM): 0.606
relative viability (NCI-H596; first compound 0.01581 µM): 0.477
relative viability (NCI-H596; first compound 0.05 µM): 0.601
relative viability (NCI-H596; first compound 0.1581 µM): 0.48
relative viability (NCI-H596; first compound 0.5 µM): 0.427
relative viability (NCI-H647; first compound 0.005 µM): 0.104
relative viability (NCI-H647; first compound 0.01581 µM): 0.0553
relative viability (NCI-H647; first compound 0.05 µM): 0.0872
relative viability (NCI-H647; first compound 0.1581 µM): 0.0307
relative viability (NCI-H647; first compound 0.5 µM): 0.0339
relative viability (NCI-H650; first compound 0.005 µM): 0.474
relative viability (NCI-H650; first compound 0.01581 µM): 0.399
relative viability (NCI-H650; first compound 0.05 µM): 0.257
relative viability (NCI-H650; first compound 0.1581 µM): 0.213
relative viability (NCI-H650; first compound 0.5 µM): 0.165
relative viability (NCI-H727; first compound 0.005 µM): 0.319
relative viability (NCI-H727; first compound 0.01581 µM): 0.303
relative viability (NCI-H727; first compound 0.05 µM): 0.447
relative viability (NCI-H727; first compound 0.1581 µM): 0.271
relative viability (NCI-H727; first compound 0.5 µM): 0.294
relative viability (NCI-H838; first compound 0.005 µM): 0.281
relative viability (NCI-H838; first compound 0.01581 µM): 0.274
relative viability (NCI-H838; first compound 0.05 µM): 0.229
relative viability (NCI-H838; first compound 0.1581 µM): 0.214
relative viability (NCI-H838; first compound 0.5 µM): 0.164
